Reference: patent US9102648B1, “Bioavailable diacylhydrazine ligands for modulating the expression of exogenous genes via an ecdysone receptor complex” (Intrexon Corporation, priority 2003, dated 2015)
Like-named read-outs stand apart in the source and are kept apart here.

What was measured:
[1] = biological target: GAL4 DBD-CfEcR(DEF)/VP16AD-MmRXRE (Choristoneura fumiferana, UniProt O77240); assay: 13B3 Assay (CHO stable cell line, luciferase reporter); details: for Fold Induction, 13B3 Assay, 33 uM: 33 uM ligand; for Fold Induction, 13B3 Assay, 33 uM / Fold Induction, 13B3 Assay, 3.3 uM: RLU ligand treated / RLU DMSO treated cells; for 13B3 assay Rel Max FI: maximum fold induction at any concentration relative to that of GS-E ligand, CHO 13B3 cells; for fold induction at 3.3 µM: read-out: Fold Induction, 13B3 Assay, 3.3 uM; for fold induction at 33 µM: read-out: Fold Induction, 13B3 Assay, 33 uM; for Fold Induction, 13B3 Assay, 3.3 uM: 3.3 uM ligand
Procedure, shortened: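 Ligands dosed at 8 levels from 33 to 0.01 μM (DMSO stocks diluted 300-fold) onto the 13B3 CHO line carrying GAL4-DBD/CfEcR-DEF, VP16/MmRXR-DE and a GAL4-responsive luciferase gene.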

[2] = biological target: T1, Bombyx mori EcR (VP16 fusion, CVBE switch construct) (Bombyx mori, UniProt P49881); assay: Z3 Assay (HEK-293 cells with CVBE and 6XEcRE LacZ, β-galactosidase reporter); details: for Fold Induction, Z3 Assay, 3.3 uM: 3.3 uM ligand; for Fold Induction, Z3 Assay, 3.3 uM / Fold Induction, Z3 Assay, 33 uM: ligand treated / DMSO treated cells; for Fold Induction, Z3 Assay, 33 uM: 33 uM ligand; for Z3 assay Rel Max FI: maximum fold induction at any concentration relative to that of GS-E ligand; for fold induction at 3.3 µM: HEK293, read-out: Fold Induction, Z3 Assay, 3.3 uM; for fold induction at 33 µM: HEK293, read-out: Fold Induction, Z3 Assay, 33 uM
T1 sequence (P49881 86-606): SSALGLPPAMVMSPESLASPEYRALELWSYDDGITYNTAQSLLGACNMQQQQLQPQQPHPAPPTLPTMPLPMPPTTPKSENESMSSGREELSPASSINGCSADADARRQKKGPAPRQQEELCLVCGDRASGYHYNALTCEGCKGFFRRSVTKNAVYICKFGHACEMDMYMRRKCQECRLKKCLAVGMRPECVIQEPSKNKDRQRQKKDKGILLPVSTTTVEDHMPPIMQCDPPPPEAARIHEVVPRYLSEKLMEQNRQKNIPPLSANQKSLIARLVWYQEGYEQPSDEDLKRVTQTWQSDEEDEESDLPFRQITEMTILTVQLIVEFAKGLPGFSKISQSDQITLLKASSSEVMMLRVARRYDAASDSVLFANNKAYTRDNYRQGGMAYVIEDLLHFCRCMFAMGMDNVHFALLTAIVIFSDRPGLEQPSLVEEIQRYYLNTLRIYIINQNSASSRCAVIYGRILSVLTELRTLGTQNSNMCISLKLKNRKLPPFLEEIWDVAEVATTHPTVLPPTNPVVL
T1 sequence (P19793 1-462 partner): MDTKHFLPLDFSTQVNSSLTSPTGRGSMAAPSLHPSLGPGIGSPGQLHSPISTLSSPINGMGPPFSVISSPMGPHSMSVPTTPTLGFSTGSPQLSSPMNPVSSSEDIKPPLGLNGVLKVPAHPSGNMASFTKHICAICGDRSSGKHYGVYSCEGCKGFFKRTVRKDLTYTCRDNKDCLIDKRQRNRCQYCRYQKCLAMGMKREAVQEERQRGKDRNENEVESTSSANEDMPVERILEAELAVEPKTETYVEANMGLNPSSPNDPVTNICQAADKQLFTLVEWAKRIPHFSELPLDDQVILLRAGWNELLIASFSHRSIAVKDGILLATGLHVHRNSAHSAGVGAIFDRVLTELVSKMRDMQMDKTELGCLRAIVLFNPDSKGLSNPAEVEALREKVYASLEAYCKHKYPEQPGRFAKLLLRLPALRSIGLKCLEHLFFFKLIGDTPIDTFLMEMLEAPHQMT

[3] = read-out: Z3 assay EC50, HEK-293 Z3 cells, β-galactosidase reporter, average of two wells
[4] = read-out: 13B3 EC50, CHO 13B3 stable cell line, luciferase reporter, 48 h, average of two wells

Structure (SMILES)	Fold Induction, 13B3 Assay, 33 uM ([1]; average of two wells)	Fold Induction, Z3 Assay, 3.3 uM ([2]; average of two wells)	Fold Induction, Z3 Assay, 33 uM ([2]; average of two wells)	Z3 assay Rel Max FI ([2]; HEK-293 Z3 cells)	EC50 [2, 3]	EC50 [1]	13B3 assay Rel Max FI [1]	fold induction at 3.3 µM [1]	fold induction at 33 µM [1]	EC50 [2]	fold induction at 3.3 µM [2]	fold induction at 33 µM [2]	Fold Induction, 13B3 Assay, 3.3 uM ([1]; average of two wells)	EC50 [1, 4]
CCc1c(C(=O)NN(C(=O)c2cccc(OC)c2)C(C)(C)C)ccc2c1OCCO2 [RG-100691]	643	843	565	0.945	257 nM	–	–	–	–	–	–	–	–	–
CCOC(=O)C(C)(C)N(NC(=O)c1cccc(OC)c1CC)C(=O)c1cc(C)cc(C)c1 [RG-115025, 2-[N-(3,5-dimethyl-benzoyl)-N′-(2-ethyl-3-methoxy-benzoyl)-hydrazino]-2-methyl-propionic acid ethyl ester]	–	–	–	0.385	–	39300 nM	0.186	8	1700	347 nM	269	489	–	–
COc1cc(C(=O)N(NC(=O)c2ccc3c(c2C)OCCO3)C(C)(C)C)cc(OC)c1O [RG-115009, 4-Hydroxy-3,5-dimethoxy-benzoic acid N-tert-butyl-N′-(5-methyl-2,3-dihydro-benzo[1,4]dioxine-6-carbonyl)-hydrazide]	–	–	–	0.916	–	18900 nM	0.917	19	2550	3310 nM	35	472	–	–
CCc1c(OC)cccc1C(=O)NN(C(=O)c1cc(C)cc(C)c1)C(C)(C)C=O [RG-115407, 2-ethyl-3-methoxy-benzoic acid N′-(3,5-dimethyl-benzoyl)-N′-(1,1-dimethyl-2-oxo-ethyl)-hydrazide]	–	–	–	0.906	–	7000 nM	1.048	2480	2610	347 nM	391	879	–	–
COc1cccc(C(=O)NN(C(=O)c2cc(Cl)c(F)c(Cl)c2)C(C)(C)C)c1C [RG-101382, N-(3-methoxy-2-methylbenzoyl)-N′-(3,5-dichloro-4-fluorobenzoyl)-N′-tert-butylhydrazine]	–	–	–	0.951	–	588 nM	0.915	13100	1010	66 nM	725	426	–	–
Cc1c(C(=O)NN(C(=O)c2cc(F)c(Cl)cc2Cl)C(C)(C)C)ccc2c1CCCO2 [RG-115539]	592	–	339	–	151 nM	–	0.955	–	–	–	–	–	20	5000 nM
CCc1ccc(C(=O)NN(C(=O)c2cc(C)cc(C)c2)C(C)(C)C)cc1 [RG-102125]	–	–	–	–	–	479 nM	–	–	–	174 nM	–	–	–	–
Cc1cc(C)cc(C(=O)N(NC(=O)c2ccc3c(c2C)OCCO3)C(C)(C)C)c1 [RG-102317, N-(5-methyl-1,4-benzodioxan-6-carbonyl)-N′-(tert-butyl)-N′-(3,5-dimethylbenzoyl)hydrazine]	–	–	–	–	–	345 nM	–	2420	814	–	416	1500	–	–
CCc1c(OC)cccc1C(=O)NN(C(=O)c1cc(C)cc(C)c1)C(C)(C)C=NO [RG-115258, 2-ethyl-3-methoxy-benzoic acid N′-(3,5-dimethyl-benzoyl)-N′-(2-hydroxyimino-1,1-dimethyl-ethyl)-hydrazide]	–	–	–	0.882	–	27100 nM	1.334	144	3740	646 nM	382	1120	–	–
Cc1ccc([N+](=O)[O-])c(C(=O)N(NC(=O)c2ccc3c(c2C)CCCO3)C(C)(C)C)c1 [RG-115664]	333	209	620	0.846	126 nM	–	0.497	–	–	–	–	–	1363	323 nM
CCc1c(C(=O)NN(C(=O)c2ccc(Cl)cc2F)C(C)(C)C)ccc2c1OCCO2 [RG-115514]	515	383	658	0.970	56 nM	–	0.550	–	–	–	–	–	4009	541 nM
COc1ccccc1C(=O)N(NC(=O)c1ccc2c(c1C)CCCO2)C(C)(C)C [RG-115102]	109	88	865	0.858	139 nM	–	0.546	–	–	–	–	–	1425	930 nM
Cc1c(C(=O)NN(C(=O)c2ccc(F)cc2)C(C)(C)C)ccc2c1OCCO2 [RG-100425]	747	1128	592	1.180	99 nM	–	–	–	–	–	–	–	–	–
COc1cc(C(=O)N(NC(=O)c2ccc3c(c2C)OCCO3)C(C)(C)C)cc(OC)c1C [RG-115637, 5-Methyl-2,3-dihydro-benzo[1,4]dioxine-6-carboxylic acid N′-tert-butyl-N′-(3,5-dimethoxy-4-methyl-benzoyl)-hydrazide]	–	–	–	0.947	–	88 nM	1.002	1110	636	18 nM	211	–	–	–
CCc1c(OC)cccc1C(=O)NN(C(=O)c1ccccc1OC)C(C)(C)C [RG-100725]	581	–	511	–	–	–	–	–	–	–	–	–	–	–
CCc1c(C(=O)NN(C(=O)c2cc(C)cc(Cl)c2)C(C)(C)C)ccc2c1OCCO2 [RG-101494, N-(5-ethyl-1,4-benzodioxan-6-carbonyl)-N′-(tert-butyl)-N′-(3-chloro-5-methylbenzoyl)hydrazine]	–	–	–	1.093	–	148 nM	0.822	755	613	79 nM	832	384	–	–
